# Source: PubChem BioAssay AID270 (DTP/NCI, 2004)
# “And” between values parts separate entries of the source, which are not always exact repeats. Equal entries are not always repeated. Inconclusive results are not listed.
# Tested on: BDF1 mice, s.c. Lewis lung carcinoma, T/C %
# Assay: NCI In Vivo Anticancer Drug Screen. Data for tumor model Lewis Lung Carcinoma (subcutaneous) in B6D2F1 (BDF1) mice
# Protocol: The antitumor activity of compounds was measured in mice bearing transplantable tumors. Survival or tumor size were measured and the results are expressed as the measurement made in the treated group (T) divided by the measurement made in the vehicle treated control group (C). The tumor model used in this assay is Lewis Lung Carcinoma (subcutaneous) in B6D2F1 (BDF1) mice
# [1] = endpoint: median survival time, dose: 12.5 mg/kg/injection, schedule: Q01DX009 (ip), vehicle: saline with Tween-80, higher = longer survival
# [2] = endpoint: median survival time, dose: 25.0 mg/kg/injection, schedule: Q01DX009 (ip), vehicle: saline with Tween-80, higher = longer survival
smiles,measurement,setting,value
Nc1nc(=S)c2[nH]cnc2[nH]1,T/C,"endpoint: median survival time, dose: 0.5 mg/kg/injection, schedule: Q01DX009 (ip), vehicle: Klucel (hydroxypropylcellulose) (HPC), higher = longer survival",108 % of control
same,T/C,"endpoint: median survival time, dose: 1.0 mg/kg/injection, schedule: Q01DX009 (ip), vehicle: Klucel (hydroxypropylcellulose) (HPC), higher = longer survival",117 % of control
same,T/C,"endpoint: median tumor weight (est.), dose: 0.67 mg/kg/injection, schedule: Q01DX011 (ip), vehicle: alkali diluted with saline, higher = larger tumour",80 % of control
same,T/C,"endpoint: median tumor weight (est.), dose: 1.0 mg/kg/injection, schedule: Q01DX011 (ip), vehicle: alkali diluted with saline, higher = larger tumour",24 % of control
Cc1nn(-c2ccccc2)c(N)c1C#N,T/C,"endpoint: median survival time, dose: 12.5 mg/kg/injection, schedule: Q01DX009 (ip), vehicle: other, higher = longer survival",94 % of control
same,T/C,"endpoint: median survival time, dose: 25.0 mg/kg/injection, schedule: Q01DX009 (ip), vehicle: other, higher = longer survival",98 % of control and 100 % of control
same,T/C,"endpoint: median survival time, dose: 50.0 mg/kg/injection, schedule: Q01DX009 (ip), vehicle: other, higher = longer survival",97 % of control
same,T/C,"endpoint: median survival time, dose: 100.0 mg/kg/injection, schedule: Q01DX009 (ip), vehicle: other, higher = longer survival",100 % of control
same,T/C,"endpoint: median survival time, dose: 200.0 mg/kg/injection, schedule: Q01DX009 (ip), vehicle: other, higher = longer survival",100 % of control
same,T/C,"endpoint: median survival time, dose: 400.0 mg/kg/injection, schedule: Q01DX009 (ip), vehicle: other, higher = longer survival",98 % of control
CN(C)c1nc(N(C)C)nc(N(C)C)n1,T/C,"endpoint: median survival time, dose: 6.25 mg/kg/injection, schedule: Q08HX024 (ip), vehicle: Klucel (hydroxypropylcellulose) (HPC), higher = longer survival",106 % of control
same,T/C,[1],93 % of control and 102 % of control
same,T/C,[2],97 % of control and 102 % of control
same,T/C,"endpoint: median survival time, dose: 25.0 mg/kg/injection, schedule: Q08HX024 (ip), vehicle: Klucel (hydroxypropylcellulose) (HPC), higher = longer survival",112 % of control
same,T/C,"endpoint: median survival time, dose: 50.0 mg/kg/injection, schedule: Q01DX009 (ip), vehicle: saline with Tween-80, higher = longer survival",103 % of control and 110 % of control
same,T/C,"endpoint: median survival time, dose: 100.0 mg/kg/injection, schedule: Q01DX009 (ip), vehicle: saline with Tween-80, higher = longer survival",102 % of control
c1ccc([As+](c2ccccc2)(c2ccccc2)c2ccccc2)cc1,T/C,"endpoint: median survival time, dose: 1.87 mg/kg/injection, schedule: Q01DX009 (ip), vehicle: Klucel (hydroxypropylcellulose) (HPC), higher = longer survival",97 % of control
same,T/C,"endpoint: median survival time, dose: 3.75 mg/kg/injection, schedule: Q01DX009 (ip), vehicle: Klucel (hydroxypropylcellulose) (HPC), higher = longer survival",95 % of control
O=NN(CCCl)C(=O)NC1CCS(=O)(=O)CC1,T/C,"endpoint: median survival time, dose: 5.0 mg/kg/injection, schedule: Q04DX004 (ip), vehicle: Klucel (hydroxypropylcellulose) (HPC), higher = longer survival",180 % of control
same,T/C,"endpoint: median survival time, dose: 7.0 mg/kg/injection, schedule: Q04DX004 (ip), vehicle: Klucel (hydroxypropylcellulose) (HPC), higher = longer survival",231 % of control
same,T/C,"endpoint: median survival time, dose: 7.0 mg/kg/injection, schedule: Q04DX004 (ip), vehicle: carboxymethylcellulose (CMC), higher = longer survival",121 % of control and 345 % of control
same,T/C,"endpoint: median survival time, dose: 8.5 mg/kg/injection, schedule: Q04DX004 (ip), vehicle: carboxymethylcellulose (CMC), higher = longer survival",109 % of control
same,T/C,"endpoint: median survival time, dose: 8.5 mg/kg/injection, schedule: Q07DX002 (ip), vehicle: carboxymethylcellulose (CMC), higher = longer survival",218 % of control
same,T/C,"endpoint: median survival time, dose: 10.0 mg/kg/injection, schedule: Q04DX004 (ip), vehicle: carboxymethylcellulose (CMC), higher = longer survival",123 % of control
same,T/C,"endpoint: median survival time, dose: 11.0 mg/kg/injection, schedule: Q07DX002 (ip), vehicle: carboxymethylcellulose (CMC), higher = longer survival",381 % of control
same,T/C,"endpoint: median survival time, dose: 14.0 mg/kg/injection, schedule: Q07DX002 (ip), vehicle: carboxymethylcellulose (CMC), higher = longer survival",200 % of control
O=C1N[C@@H]([C@H]2CC[C@H](Cl)CN2)C(=O)N[C@H]1[C@H]1CC[C@H](Cl)CN1,T/C,"endpoint: median survival time, dose: 2.7 mg/kg/injection, schedule: Q01DX009 (ip), vehicle: saline, higher = longer survival",102 % of control
same,T/C,"endpoint: median survival time, dose: 4.4 mg/kg/injection, schedule: Q04DX003 (ip), vehicle: saline, higher = longer survival",99 % of control
same,T/C,"endpoint: median survival time, dose: 6.5 mg/kg/injection, schedule: Q04DX003 (ip), vehicle: saline, higher = longer survival",105 % of control
same,T/C,"endpoint: median survival time, dose: 9.0 mg/kg/injection, schedule: Q01DX001 (ip), vehicle: saline, higher = longer survival",91 % of control
same,T/C,"endpoint: median survival time, dose: 13.0 mg/kg/injection, schedule: Q01DX001 (ip), vehicle: saline, higher = longer survival",101 % of control
same,T/C,"endpoint: median survival time, dose: 20.0 mg/kg/injection, schedule: Q01DX001 (ip), vehicle: saline, higher = longer survival",100 % of control
CCCCCCCCCCCCSC(=N)N,T/C,"endpoint: median survival time, dose: 6.25 mg/kg/injection, schedule: Q01DX009 (ip), vehicle: saline with Tween-80, higher = longer survival",107 % of control
same,T/C,[1],106 % of control
same,T/C,[2],104 % of control
COc1cc(C[C@H]2c3cc(OC)c(OC)cc3CCN2C)c(Oc2cc3c(cc2OC)-c2c(OC)c(OC)cc4c2[C@H](C3)N(C)CC4)cc1OC,T/C,"endpoint: mean tumor weight, dose: 50.0 mg/kg/injection, schedule: Q01DX011 (ip), vehicle: carboxymethylcellulose (CMC), higher = larger tumour",49 % of control
same,T/C,"endpoint: mean tumor weight, dose: 100.0 mg/kg/injection, schedule: Q01DX011 (ip), vehicle: carboxymethylcellulose (CMC), higher = larger tumour",26 % of control
